What all share (type): binding
Assay [1] has as its target T1, Aβ1-42 oligomers (Homo sapiens, UniProt P05067).
T1 construct: Aβ1-42 peptide was aggregated at 37 °C for 8 hours
Kind of assay: Selectivity for Aβ1-42 over tau domain (fluorescence). Particulars: tau repeat domain 3 aggregates. How it is done: Considering that tau protein aggregation is also a major pathological feature of AD, the selectivity of IK15j for Aβ1-42 over tau domains was further evaluated. […] Since repeat domain 3 is a core region of tau aggregates, IK15j was incubated with the tau domain or with Aβ1-42, and the resulting changes in fluorescence intensity were compared. Briefly, Aβ1-42 and tau aggregate samples were each treated with IK15j, and the fluorescence intensity was measured. As a result, the signal of IK15j increased in the presence of Aβ1-42 oligomers compared to that of the tau domain (FIG. 3E).

In a further assay the target is T2, fibrinogen (Homo sapiens, UniProt P02671+P02675+P02679).
T2 construct: purchased Sigma-Aldrich
T2 sequence (P02671 20-629 limits assumed): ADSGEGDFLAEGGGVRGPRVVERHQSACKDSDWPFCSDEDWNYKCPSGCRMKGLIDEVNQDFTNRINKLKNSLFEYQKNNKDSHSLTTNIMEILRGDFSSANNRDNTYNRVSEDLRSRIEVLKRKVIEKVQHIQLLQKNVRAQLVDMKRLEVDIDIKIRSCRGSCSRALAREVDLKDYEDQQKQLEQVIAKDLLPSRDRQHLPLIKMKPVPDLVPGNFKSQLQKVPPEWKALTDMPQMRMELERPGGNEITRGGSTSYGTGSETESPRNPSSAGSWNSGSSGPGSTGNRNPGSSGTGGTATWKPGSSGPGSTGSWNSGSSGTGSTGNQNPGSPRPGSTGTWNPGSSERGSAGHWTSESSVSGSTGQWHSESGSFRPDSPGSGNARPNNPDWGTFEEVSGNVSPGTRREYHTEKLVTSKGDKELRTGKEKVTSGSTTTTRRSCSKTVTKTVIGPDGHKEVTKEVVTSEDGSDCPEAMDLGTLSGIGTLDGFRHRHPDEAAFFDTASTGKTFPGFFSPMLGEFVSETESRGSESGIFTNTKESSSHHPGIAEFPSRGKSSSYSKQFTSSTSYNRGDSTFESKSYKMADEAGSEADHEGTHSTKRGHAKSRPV
T2 sequence (P02675 31-491): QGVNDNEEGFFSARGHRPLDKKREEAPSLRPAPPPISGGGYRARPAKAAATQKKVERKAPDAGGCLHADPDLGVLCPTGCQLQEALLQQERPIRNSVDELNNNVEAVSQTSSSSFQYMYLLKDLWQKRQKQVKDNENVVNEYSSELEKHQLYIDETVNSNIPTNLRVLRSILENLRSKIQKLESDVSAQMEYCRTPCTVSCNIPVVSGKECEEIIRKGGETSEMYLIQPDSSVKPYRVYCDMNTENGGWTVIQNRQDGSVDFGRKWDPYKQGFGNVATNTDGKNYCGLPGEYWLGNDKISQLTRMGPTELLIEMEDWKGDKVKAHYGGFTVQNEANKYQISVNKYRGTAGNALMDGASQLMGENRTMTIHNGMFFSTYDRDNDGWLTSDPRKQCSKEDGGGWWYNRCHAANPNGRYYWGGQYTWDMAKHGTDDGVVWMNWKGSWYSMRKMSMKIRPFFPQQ
T2 sequence (P02679 27-453): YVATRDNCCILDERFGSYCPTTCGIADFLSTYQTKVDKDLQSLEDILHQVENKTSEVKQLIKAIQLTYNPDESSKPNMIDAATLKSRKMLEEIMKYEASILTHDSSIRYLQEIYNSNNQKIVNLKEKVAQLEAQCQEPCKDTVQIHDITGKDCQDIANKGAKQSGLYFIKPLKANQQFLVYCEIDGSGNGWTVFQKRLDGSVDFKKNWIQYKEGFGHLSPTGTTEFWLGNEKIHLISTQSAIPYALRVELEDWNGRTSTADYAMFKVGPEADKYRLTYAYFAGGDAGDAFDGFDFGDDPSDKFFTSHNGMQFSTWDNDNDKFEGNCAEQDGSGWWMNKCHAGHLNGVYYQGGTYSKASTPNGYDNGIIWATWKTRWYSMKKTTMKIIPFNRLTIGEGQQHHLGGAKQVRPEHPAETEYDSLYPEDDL
Kind of assay: Selectivity for blood proteins: fibrinogen. Conditions: IK15j (25 µM). Here is the method: Aβ1-42 peptide was aggregated at 37 °C for 8 hours, and 25 µM of Aβ1-42 oligomers, albumin (Sigma-Aldrich, USA), and fibrinogen (Sigma-Aldrich, USA) were seeded into a black microplate. Each sample was treated with IK15j (100 µM) for 8 hours at room temperature. The signal of each sample was detected using a microplate reader (λex = 285 nm / λem = 475 nm).
Excluding water, the solid components of plasma consist of coagulation factors and plasma proteins. Albumin is the most abundant protein in plasma, and fibrinogen is a major coagulation factor in plasma. Considering the possibility that fibrinogen or albumin might interact with AD diagnostic tools and interfere with compound selectivity, IK15j (25 µM) was incubated with Aβ1-42, albumin, or fibrinogen as described in Reference Example 10, and the fluorescence signal of each sample was measured to evaluate the selectivity of the compound of the present disclosure against these proteins.

Assay [2] deals with T1, Aβ1-42 oligomers. Put plainly: Co-incubation with Aβ1-42 oligomers and albumin. Conditions: co-incubated with Aβ1-42 oligomers and albumin. How it is done:
Full-length Aβ1-42 peptide was immobilized on a maleimide-activated microplate. Then, the plate was treated with additional Aβ1-42 peptide (10 µM) at 37°C for 8 hours. After peptide immobilization, unbound peptides were removed by washing three times with 200 µL of wash buffer. To form albumin-Aβ oligomer complexes, the plate was treated with albumin (10 µM, Sigma-Aldrich, USA) at room temperature for 24 hours, and unbound residues were removed by washing three times with 200 µL of wash buffer. The control Aβ oligomer wells were not treated with albumin. Each well was treated with the compound of the present disclosure (100 µM), and the signal of each sample was detected using a microplate reader (λex = 285 nm / λem = 475 nm).
In addition, to investigate whether albumin interferes with the binding between IK15j and Aβ1-42 oligomers, IK15j was co-incubated with Aβ1-42 oligomers and albumin as described in Reference Example 11, and the fluorescence signal of each sample was analyzed.

T1 sequence (P05067 672-713): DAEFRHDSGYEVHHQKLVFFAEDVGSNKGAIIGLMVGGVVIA

With `Cc1ccc2c(c1)c(-c1ccccc1)cn1c(C)cc(C#N)c21` [IK15j, 3,8-dimethyl-6-phenylpyrrolo[2,1-a]isoquinoline-1-carbonitrile], the “signal in the presence of Aβ1-42 oligomers compared to the tau domain” value on Aβ1-42 oligomers [1] is recorded as “increased”. Further, the interaction with fibrinogen result at fibrinogen is recorded as “did not interact”. Also, on Aβ1-42 oligomers [2], the “signal of Aβ1-42 oligomer and albumin sample compared to Aβ1-42 oligomer-only sample” value was “decreased compared to the Aβ1-42 oligomer-only sample, the difference was not significant”.

These data come from EP4755889A1, “COMPOUND FOR DETECTING AMYLOID-BETA OLIGOMER AND METHOD FOR DIAGNOSING DEGENERATIVE BRAIN DISEASE USING SAME” (Amyloid Solution Inc., priority 2024, dated 2025).
